Measurements reported in a melting point compilation (Tetko et al.; mined from patent text by program, amines drawn as free bases though some values may be those of a salt).
Residues, ends and D or L forms follow the SMILES beside them.

melting point [°C] | SMILES
252 to 254 | CC(=O)Nc1ccc(Oc2ccccc2)c2c(=O)c3ccccc3n(C)c12
52 to 56 | OC1Cc2cc(F)cc(F)c2C1 (configuration not stated)
159 | OC1CCCc2nc3ccccc3c(NCc3ccccc3)c21 (configuration not stated)
182 to 186 | COc1ccc2c(c1)C1(C)CC(=O)N(C)C1(O)CC2 (configuration not stated)
95 to 97 | CCOC(=O)C(=O)Nc1cc(N2CCOCC2)ccc1OC
114 | COc1ccc(-c2cc(C(=O)Nc3ccc(CCN(C)Cc4ccc(OC)c(OC)c4)cc3)c3ccccc3n2)cc1
> 275 | COc1ccc(Nc2nc(C)c(-c3nc4ccccc4c(=O)n3-c3ccc(Cl)cc3)s2)cc1
72 to 74 | Fc1cc(F)c(-c2c(Cl)nc(-n3ccnc3)nc2Cl)c(F)c1
172 to 173 | CC(=O)OCC1CN(C(=O)OC(C)(C)C)c2cc(OCc3ccccc3)c3ncccc3c21 (configuration not stated)
144 to 145 | O=C(O)COc1cccc2c1CCC(Cn1nc(C(c3ccccc3)c3ccccc3)ccc1=O)C2 (configuration not stated)
182 to 183 | O=C(O)c1ccccc1-c1ccc(-c2ccc(C(F)(F)F)cc2)o1
208 to 210 | c1coc(-c2ccc3c(n2)[nH]c2ccccc23)c1
235 to 236 | Nc1c(-c2cccnc2)nsc1C(=O)O
134 to 135 | O=C(NCc1ccccn1)Nc1cc(N2CC(COCc3ccccc3)OC2=O)ccn1 (configuration not stated)
101 to 102 | CON=C1CSc2ccccc2CN1
231 to 233 | CC(=O)c1cnc2c(NC(=O)c3c(Cl)cccc3Cl)cccc2c1N1CCOCC1
183 to 185 | COc1cc2c(cc1OC)CC(C(=O)N1CCN(C(=O)c3cc(OC)c(OC)c(OC)c3)CC1)=C2
135 to 137 | C=CC(=O)c1ccc(O)c(Cl)c1Cl
203 to 204 | COC1OCC[C@@H]1N(C(=O)CNC(=O)COc1ccc2c(c1)Nc1ccccc1S2)[C@@H](Cc1ccccc1)C(N)=O (some centres not stated)
147 to 148 | COC(=O)CCCc1cc2nc(Cl)ccc2n1S(=O)(=O)c1cccc(-c2cscn2)c1
114 to 115 | CCCOCCOc1ccc(-c2ccc3c(c2)C=C(C(=O)O)CCN3CCCOC)cc1

melting point [°C] | SMILES
91 to 93 | Nc1cccnc1Nc1ccccc1C(=O)c1ccccc1
193 to 195 | Cc1nnsc1C(=O)Nc1ccc(-n2nc(C(F)(F)F)cc2C#N)cc1
156 to 157 | Cc1nc(N2CCN(CCc3ccccc3)C2=O)sc1C(=O)NCc1ccccc1
186 to 191 | COCCC(=O)c1cc2c(=O)n(NS(C)(=O)=O)c(=O)[nH]c2cc1C(F)(F)F
194 to 195 | O=C(Nc1ccc(OC(F)(F)F)cc1)c1c(O)c2ccccc2oc1=O
43 to 45 | CCOC(=O)c1cccc(CSCCNC(=O)c2c(Cl)cccc2Cl)c1
278 to 280 | Cc1ccc2oc(=O)c(-c3cc(O)c(O)c(C#N)c3)nc2c1
79 to 81 | CCOC(=O)CN1C(=O)C(N2C(=O)c3ccccc3C2=O)CCCc2ccccc21 (configuration not stated)
100 to 101 | Cc1ccnc2c(N)cc(F)cc12
98 to 101 | CCOC(=O)C1=C(C)N(C(=O)c2ccccc2)C(C)=C(C(=O)OCC)C1c1cccc([N+](=O)[O-])c1
72 to 75 | COC(=O)Cc1cccc(NC(=O)NC2c3cc(C#N)ccc3OC(C)(C)C2O)c1 (configuration not stated)
236 to 237 | CC(C)(Cc1ccccc1)C(NC(=O)c1ccc(Cl)cc1)Nc1c(Nc2cccnc2Cl)c(=O)c1=O (configuration not stated)
215 to 217 | Cc1ccsc1-n1ncc(-c2ccc(S(C)(=O)=O)cc2)c(-c2ccc(F)cc2)c1=O
64 to 66 | CCOc1cc(CBr)ccc1C(=O)O
105 to 106 | COC(=O)c1cc2ccccc2nc1C(=O)OC
123 to 124 | CCOC(=O)/C=C/c1cc(-c2ccccc2)nn1Cc1ccc(Cl)cc1Cl
212 to 214 | OCc1c[nH]c(-c2ccc(O)cc2)n1
208 to 210 | CCCc1nn(C)c2c(-c3ccc(S(C)(=O)=O)cc3)nc(-c3ccc(F)cc3)nc12
132 to 135 | COC(=O)c1ccc2c(c1)Sc1cc(F)ccc1C=C2
138 | CS(=O)(=O)c1ccc(C2=C(c3ccc(F)cc3)CC(C(F)(F)F)(C(F)(F)F)C2)cc1
131 to 133 | NC(=O)N(O)CCCCNC(=O)c1cccc(Oc2ccccc2)c1

Continued, compound first:

SMILES | melting point [°C]
COC(=O)Nc1nc2ccccc2n1C(=O)NC(=O)C(Cl)=C(Cl)Cl | 231
CN(C)C(=O)ON=C1COCS1 | 87.5 to 88
CC(C)(C)OC(=O)C(C)(C)N1COC(CCl)=C(c2ccccc2)C1=O | 128 to 129
CN(C)c1c(S(=O)C(F)(F)F)c(C#N)nn1-c1c(Cl)cc(C(F)(F)F)cc1Cl (configuration not stated) | 154 to 161
CC(=O)SC[C@H]1CCCCCC[C@H](C(=O)O)NC1=O (relative stereo) | 144 to 145
CCCCCCCCCCCCCCCCCCOc1ccc(S(=O)(=O)Nc2ccccc2Cl)cc1NC(=O)CC(=O)N1CCc2ccccc21 | 124 to 128
CCCCCCCCCCNC(=O)OC1CCN(C(=O)OCCCCCCNC(=O)Oc2ccc(Oc3ccccc3)cc2)CC1 | 87 to 91
COc1ccc(C=NO)cc1-c1cc2c(cc1C)C(C)(C)CCC2(C)C | 152
O=C1CCC2=C(CCCC2)N1 | 143 to 144
CCOC(=O)CCCOc1ccc(C(N)=O)c(OCC2CCCCC2)c1 | 98 to 99
CN1CC=C(c2c[nH]c3ccc(NS(=O)(=O)c4cccc5ccccc45)cc23)CC1 | 244 to 245
CCCc1nc2c(N)nc3ccccc3c2n1CCOCCCS(=O)(=O)C(C)C | 176 to 177
O=Cc1cc2c(cc1O)CCCO2 | 97 to 100
CCn1nc2c(N)nc3c(c2c1CC(C)(C)O)CCCC3 | 202 to 204
CC(C)(CO)c1cc(NC(=O)C(C)(C)S(=O)(=O)C2CCOCC2)on1 | 191 to 192
COC(=O)C(Cc1ccccc1)NC(=O)C(CC(=O)O)NC(=O)C1CCCN1 (stereo not drawn) (H-Pro-Asp-Phe-OMe; configuration not given here) | 238 to 242
CC(C=CC=C(C)c1cc(C(C)(C)C)cc(C(C)(C)C)c1)=CC(=O)O | 196 to 198
CCCCc1nc(Cl)c(CO)n1Cc1ccccc1Cl | 134 to 135
Cn1cnc(C(O)c2cc(Cl)cc3c2OC(C)(C)OC3)c1 (configuration not stated) | 131 to 136
CCCCCCCCCCCCCCCCOc1nc2ccc(C)cc2c(=O)o1 | 67
CC(C)CN(C(=O)N(CCCl)N=O)C1OC(OC2CCCCC2)C(O)C(O)C1O (configuration not stated) | 74 to 76
Cc1cc(CC(C)(C)C=O)cc(C)c1O | 72 to 73
COCC1CNc2nc(N)[nH]c(=O)c2N1 (racemic) | > 250
CCC(C)(C)c1c[nH]cn1 | 95 to 96
CCCCCCCCC(C(=O)O)C(O)(CC(=O)O)C(=O)O (configuration not stated) | 65.8 to 66.7
CNC(=NCCCSCc1[nH]cnc1C)NC#N | 156 to 158
COc1cccc(CC2SCCCS2)c1 | 54 to 56
CCn1c(=O)c2[nH]c(/C=C/c3cc4c(cc3Br)OCO4)nc2n(CC)c1=O | > 270
CCCCCCCCCCCCCC=C(C(=O)O)c1ccc2c(c1)C(C)(C)CCC2(C)C | 59 to 60
CSc1ncc(S(=O)(=O)NC(C)(C)C)c(Cl)n1 | 117 to 118
